Common to all, as to experiment: NCI anticancer screen, dose series, 48 h
Test [1] has as its system OVCAR-3 ovarian.
Test [2] deals with RPMI-8226 leukemia.
The subject of test [3] is A549 NSCLC.
Test [4] relates to LOX IMVI melanoma.
Test [5] has as its system IGROV1 ovarian.
The subject of test [6] is UACC-62 melanoma.
For test [7], the system named is PC-3 prostate.
Test [8] has as its system DU-145 prostate.
Test [9] concerns RXF 393 renal.
In test [10] the test system is MDA-MB-231 breast.

Several values for one entry are separate records, joined by “and”; a condition that tells them apart may be missing. Equal values may be shown once.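 Each compound was tested at five concentrations against cells in 96-well plates for 48 hours. GI50 marks 50% less growth. TGI marks complete inhibition of growth.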

With `C=C1C(=O)O[C@H]2[C@H]1CC/C(Cn1cc(Cn3ccc4ccccc43)nn1)=C\CC[C@@]1(C)O[C@@H]21`, the GI50 in [1] was 1.62 µM; in test [2], 1.68 µM; in [3] it was 13.1 µM; in test [4], 1.59 µM; in [5], 1.86 µM; in [6] it was 1.44 µM. The GI50 in test [7] was 1.47 µM; in [8] it was 1.64 µM; in test [9], 1.41 µM; in [10], 1.31 µM. The TGI in test [1] was 3.01 µM; in test [2] it was 4.7 µM; in test [3], 27.4 µM; in test [4], 3.08 µM; in [5] it was 3.61 µM; in test [6], 2.89 µM. Also, the TGI in [7] came to 2.98 µM; in test [8], 3.01 µM; in test [9], 2.82 µM; in test [10] it was 2.84 µM.

Take `Cc1cc(C)c(O)c(Cc2cccc(Cc3cc(C)cc(C)c3O)c2O)c1`: the TGI in test [1], in test [2], in test [3], in [4], in [5] and in test [6] was above 100 µM throughout. The TGI in [7], in test [8], in test [9] and in test [10] was above 100 µM each time.

For the compound `Nc1ncnc2c1nc(-c1ccccc1)n2C1OC(CO)C(O)C1O` (configuration not stated), the TGI in [1], in test [2], in test [3], in test [4], in test [5] and in test [6] was above 100 µM throughout. For the same compound, the TGI in test [7], in test [8], in test [9] and in test [10] was above 100 µM each time.

On to `Cc1ccc(S(=O)(=O)/N=c2\ssc(Nc3ccccc3)c2Cl)cc1`, for which the GI50 is 6.08 µM in test [1]; 7.77 µM in [2]; 14.6 µM in test [3]; 10.2 µM in test [4]; 30.9 µM in [5]; 13.5 µM in [6]. Moreover, the GI50 in test [7] was 6.95 µM; in [8], 7.74 µM; in test [9] it was 13.6 µM; in test [10], 9.84 µM. The TGI in test [1] is 20.2 µM; in [2], 26.8 µM; in [3], above 50 µM; in test [4] it was 20.9 µM; in test [5] it was above 50 µM; in [6], above 50 µM. The TGI in test [7] was 18.4 µM; in [8] it was 27.6 µM; in [9], 46.1 µM; in [10], 26 µM.

On to `Cc1n[nH]c(=S)n1/N=C/c1ccc(F)c(Oc2ccccc2)c1`, for which the GI50 in test [1] is 44.6 µM; in test [2], 42.7 µM; in test [3] it was 42.2 µM; in [4], 51.1 µM; in [5], 62.3 µM; in test [6], 52.4 µM. Also, the GI50 is 79.6 µM in test [7], 49.5 µM in test [8], above 100 µM in test [9] and 41.2 µM in [10]. The TGI in test [1], in test [2], in test [3], in test [4], in test [5] and in [6] was above 100 µM in each case. The TGI in test [7], in test [8], in test [9] and in [10] was above 100 µM throughout.

Consider `CC(=O)O[C@H]1C(=O)O[C@@H]2C[C@H]3C(C)=CC(=O)[C@@H](O)[C@]3(C)[C@H]3[C@@]4(O)OC[C@]32[C@@H]1[C@@H](C)[C@H]4O`, for which the GI50 is 0.0134 µM in test [1]; below 0.0142 µM in test [2]; 0.23 µM and 0.431 µM in test [3]; below 0.01 µM in [4]; below 0.01 µM in test [5]; 0.0271 µM in test [6]. In addition, in test [9], the GI50 was 0.0481 µM. In addition, the TGI in test [1] was 0.172 µM and 0.12 µM; in [2] it was 0.0989 µM; in [3] it was 3.32 µM and 3.93 µM; in test [4], 0.0642 µM and 0.442 µM; in test [5], 1.4 µM and 0.247 µM; in test [6] it was 0.531 µM and 0.2 µM. Also, the TGI in test [7] is 0.137 µM; in [8] it was 0.176 µM; in test [9] it was 0.503 µM and 0.108 µM; in [10], 0.399 µM.

Turning to `O=C1C(=O)c2ccccc2-c2ccccc21`, the GI50 in test [1] is 1.72 µM; in [2], 0.583 µM; in test [3] it was 2.48 µM; in [4], 0.367 µM; in test [5], 2.07 µM; in [6], 1.52 µM. The GI50 is 1.31 µM in test [7], 1.68 µM in [8], 1.72 µM in test [9] and 1.42 µM in test [10]. Also, the TGI in test [1] turned out to be 3.2 µM; in [2] it was 2.79 µM; in test [3], 6.54 µM; in test [4], 1.79 µM; in test [5] it was 3.75 µM; in test [6] it was 3.03 µM. Moreover, the TGI in test [7] worked out at 2.79 µM; in test [8], 3.07 µM; in test [9], 3.12 µM; in test [10], 3.19 µM.

For `O=[N+]([O-])c1cc(CCl)ccc1CCl`, the TGI was determined as 3.27 µM in test [1]; 3.91 µM in test [2]; 16.9 µM in test [3]; 4.12 µM in test [4]; 2.92 µM in test [5]; 11.4 µM in test [6]. Moreover, the TGI in test [7] amounted to 3.08 µM; in test [8] it was 2.99 µM; in test [9] it was 1.65 µM; in test [10], 4.5 µM.

In the case of `Cc1cc(O)c(C(c2cccnc2)c2c(O)cc(C)[nH]c2=O)c(=O)[nH]1`, the TGI in test [1], in test [2], in [3], in [4], in test [5] and in [6] was above 100 µM in each case. The TGI in test [7], in test [8], in [9] and in test [10] was above 100 µM each time.

Source of the values: PubChem BioAssay (NCI).
